Reference: US10113154B2, “Method for producing steviol glycoside” (SUNTORY HOLDINGS LIMITED, priority 2012, dated 2018)

Key:
[1] = test system: UGT85C2 and UGT91D-like 3; test: Simultaneous reaction of UGT85C2 and UGT91D-like 3 (LC-MS analysis); type: biochemical, stevia; conditions: FIG. 4 panel 3
[2] = molecular target: T1, UGT85C2 (Stevia rebaudiana, UniProt Q6VAB0, A65S/E71Q/K220T); test: Assay for enzyme activity of UGT85C2 (glucosylation with UDP-glucose, LC-MS analysis); type: biochemical; conditions: 0.1 mM substrate, 2 mM UDP-glucose, pH 7.0, 30° C., one hour; FIG. 4 panel 1
T1 construct: The ORF fragment of about 1.4 kb from UGT85C2 was excised using the restriction enzyme sites of NdeI and BglII; made in house; host or cells: Escherichia coli BL21 (DE3)
T1 sequence (Q6VAB0 whole entry A65S/E71Q/K220T, the tested form may be a part): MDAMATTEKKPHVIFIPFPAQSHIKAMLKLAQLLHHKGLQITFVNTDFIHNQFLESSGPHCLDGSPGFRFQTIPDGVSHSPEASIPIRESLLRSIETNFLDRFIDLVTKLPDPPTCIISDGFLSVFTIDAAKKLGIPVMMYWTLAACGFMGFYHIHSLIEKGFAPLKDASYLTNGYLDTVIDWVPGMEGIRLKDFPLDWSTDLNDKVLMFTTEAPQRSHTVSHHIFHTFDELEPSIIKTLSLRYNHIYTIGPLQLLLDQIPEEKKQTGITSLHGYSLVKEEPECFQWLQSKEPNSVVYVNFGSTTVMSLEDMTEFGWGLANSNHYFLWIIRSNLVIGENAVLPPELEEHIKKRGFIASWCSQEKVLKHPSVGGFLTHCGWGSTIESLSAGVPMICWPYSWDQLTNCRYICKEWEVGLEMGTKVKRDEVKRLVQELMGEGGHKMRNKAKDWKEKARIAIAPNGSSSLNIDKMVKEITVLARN
Protocol: Standard conditions for the enzyme reaction were as follows. A reaction solution (2 mM UDP-glucose, 0.1 mM glycosyl acceptor substrate (steviol), 100 mM potassium phosphate buffer (pH 7.0) and 25 μl of purified UGT85C2 enzyme solution) was prepared in distilled water to become 50 μl, and reacted at 30° C. for an hour. The LC-MS analysis was performed for 5 μl of the enzyme reaction solution under the following conditions.
Column: Waters Sunfire C18 3.5 um 2.0 mm I.D.×20 mm
Moving phase: A: MilliQ Water (+0.05% formic acid), B: MeCN
Gradient: linear gradient of B from 15% to 55% (20 mins.)

[3] = molecular target: T2, UGT85C2 and UGT91D-like 3 (Stevia rebaudiana, UniProt Q6VAB0, A65S/E71Q/K220T); test: Simultaneous reaction of UGT85C2 and UGT91D-like 3 (LC-MS analysis); type: biochemical; conditions: concluded from simultaneous reaction, FIG. 4 panel 3
T2 construct: The ORF fragment of about 1.4 kb from UGT85C2 was excised using the restriction enzyme sites of NdeI and BglII; made in house; host or cells: Escherichia coli BL21 (DE3), stated for UGT85C2 only
T2 sequence (Q6VAB0 whole entry A65S/E71Q/K220T, the tested form may be a part): as above

SMILES | products formed by simultaneous reaction of UGT85C2 and UGT91D-like 3 [1] | glucosylation of the carboxyl at C19-position by UGT85C2, product additionally formed [2] | glucosylation of the hydroxyl at C-13 position by UGT85C2, product formed [2] | glucosylation of the carboxyl at C19-position by UGT85C2 protein [3]
C=C1C[C@@]23CC[C@H]4[C@@](C)(CCC[C@@]4(C)C(=O)O)[C@@H]2CC[C@]1(O)C3 [steviol] | steviolbioside (FIG. 4: panel 3: peak C) and stevioside (FIG. 4: panel 3: peak E) were formed | rubusoside (FIG. 4: panel 1: peak D) with the carboxyl at C19-position being glucosylated was additionally formed | glucosylated (FIG. 4, panel 1: peak A) to form steviolmonoside | 
C=C1C[C@@]23CC[C@H]4[C@@](C)(CCC[C@@]4(C)C(=O)O)[C@@H]2CC[C@]1(O[C@@H]1O[C@H](CO)[C@@H](O)[C@H](O)[C@H]1O[C@@H]1O[C@H](CO)[C@@H](O)[C@H](O)[C@H]1O)C3 [steviolbioside] |  |  |  | glucosylates the carboxyl at C19-position of steviolbioside
